Our source for the IC50 values is ChEMBL document CHEMBL1136480, “Successful shape-based virtual screening: the discovery of a potent inhibitor of the type I TGFbeta receptor kinase (TbetaRI)” (Bioorg Med Chem Lett, 2003).

In the experiment the test system is HepG2. Kind of experiment: Inhibition of TGF-beta-induced expression of PAI-luciferase reporter in HepG2 cells. The class given is functional, cell-based. Particulars: Homo sapiens. For orientation: In a reporter assay the amount or activity of a reporter protein is the signal.

The structures appear in SMILES notation.

In general, IC50 refers to the concentration that inhibits the measured activity by half. Low readings indicate higher potency, high ones lower potency. With `c1ccc(-c2n[nH]cc2-c2ccnc3ccccc23)nc1`, half-maximal inhibition (IC50) required 60 nM.
